How the values were obtained:
[1] = system: serum total IgE and allergen-specific IgE; experiment: Clinical trial: serum total and allergen-specific IgE (ImmunoCAP); assay type: in vivo, human
[2] = system: Patients aged 1 to 18 years with physician-diagnosed AD and sleep problems; experiment: Clinical trial: sleep evaluated by actigraphy; assay type: in vivo, human
Protocol: Patients aged 1 to 18 years with physician-diagnosed AD involving at least 5% of the total body surface area were recruited from the pediatric and dermatology outpatient departments of the National Taiwan University Hospital from Aug. 1, 2012, through Jan. 31, 2013. Follow-up was completed on Apr. 13, 2013. Those patients with sleep problems occurring more than 3 days per week during the previous 3 months were eligible. […] They were then randomized to receive oral melatonin, 3 mg/d (General Nutrition Corporation), or placebo (Standard Chem & Pharm Co, Ltd) at bedtime for 4 weeks. After a 2-week washout period, participants crossed to the alternate treatment. Sleep was evaluated by actigraphy (Mini-Mitter Actiwatch; Philips-Respironics). Each participant wore the actigraphic device on the nondominant wrist for 3 consecutive nights starting 3 nights before each treatment period and for the last 3 nights of each treatment period. In a subgroup of patients who offered consent, polysomnography was performed on the night before the first day and on the last night of each treatment period.

[3] = system: DNCB-induced AD mouse model; experiment: Example 5: dermatitis severity, topical melatonin in DNCB-induced AD mouse model; assay type: in vivo, Balb/c mice
Protocol: Four- to six-week-old Balb/c mice were maintained under specific pathogen-free conditions. Animals were housed in an air-conditioned animal room (25±1° C.; relative humidity 40±5%) and were fed a laboratory diet and distilled water. Animal care and handling protocols were approved by the Animal Committee of the College of Medicine, Taiwan University, and all procedures were conducted in accordance with the U.S. National Institute of Health guidelines.
The protocol for establishing an AD mouse model in this Example was modified from those described previously. Briefly, referring to FIG. 4, DNCB-induced AD mouse model was prepared by the repeated applications of 20 μL of 1% DNCB in acetone/olive oil (4:1) to the outer and inner surfaces of mouse ears and 100 μL of the same solution to the shaved back skin once on days 1, 2, and 3. Mice of Control group were treated with the identical volumes of vehicle. […]
Macroscopic assessment of the severity of dermatitis was determined by a scoring method as described previously. Briefly, the degree of each sign were scored as 0 (none), 1 (mild), 2 (moderate), and 3 (severe). […] Ear thickness was measured with a thickness gauge (Digimatic Indicator, Mitsutoyo, Tokyo). […]

[4] = after vs before oral melatonin 3 mg/d, 4 weeks, mean
[5] = melatonin vs placebo, adjusted for age and sex
[6] = after oral melatonin 3 mg/d at bedtime for 4 weeks, mean, actigraphy
[7] = melatonin phase, before treatment, mean, actigraphy

COc1ccc2[nH]cc(CCNC(C)=O)c2c1 [Melatonin, melatonin]
IgE level, After ([1]; after oral melatonin 3 mg/d at bedtime for 4 weeks, mean, serum): 2483.8 kU/L | IgE level, Difference [1, 4]: 108.4 kU/L | IgE level, Before ([1]; melatonin phase, before treatment, mean, serum): 2337.2 kU/L | effect on allergen-specific IgE levels to Derp, Derf, or S aureus enterotoxins A or B ([1]; melatonin vs placebo, P>0.05): no significant difference | effect on total IgE level ([1]; melatonin vs placebo, P>0.05): no significant difference | IgE level, Difference of Treatment Effect From the Linear Mixed-Effects Model, Mean [1, 5]: −113.6 kU/L | sleep-onset latency, Wilcoxon signed rank test ([2]; FIG. 2D, almost unchanged in placebo treatment): decreased the sleep-onset latency significantly | patients who believed that their sleep had improved ([2]; after melatonin treatment, 17 of 37 (placebo 13 of 38 [34%])): 46% | Fragmentation index, After ([2]; after oral melatonin 3 mg/d at bedtime for 4 weeks, mean): 13.6 | Mobility in sleep, After [2, 6]: 9.7% | Sleep efficiency, After [2, 6]: 76.7% | Sleep-onset latency, After [2, 6]: 21.6 min | Total sleep time, After [2, 6]: 390.1 min/night | WASO (wake after sleep onset), After [2, 6]: 74.5 min | Wake in sleep interval, After [2, 6]: 15.6% | Fragmentation index, Difference [2, 4]: −2.4 | Mobility in sleep, Difference [2, 4]: −2.0% | Sleep efficiency, Difference [2, 4]: 2.4% | Sleep-onset latency, Difference [2, 4]: -23.4 min | Total sleep time, Difference [2, 4]: 10.0 min/night | WASO (wake after sleep onset), Difference [2, 4]: -9.0 min | Wake in sleep interval, Difference [2, 4]: −2.1% | effect on the other sleep variables measured by actigraphy ([2]; between the melatonin and placebo phases): did not differ significantly | decrease of the sleep-onset latency more than placebo ([2]; linear mixed-effects model, adjusted for age and sex): 21.4 min | sleep-onset latency, first treatment period, after ([2]; melatonin group, first treatment period, after oral 3 mg/d for 4 weeks, actigraphy): 24.4 min | sleep-onset latency, first treatment period, before ([2]; melatonin group, first treatment period, before treatment, actigraphy): 42.8 min | sleep-onset latency, second treatment period, after ([2]; melatonin group, second treatment period, after oral 3 mg/d for 4 weeks, actigraphy): 19.1 min | sleep-onset latency, second treatment period, before ([2]; melatonin group, second treatment period, before treatment, actigraphy): 46.7 min | Mobility in sleep, Before [2, 7]: 11.6% | Sleep efficiency, Before [2, 7]: 74.4% | Sleep-onset latency, Before [2, 7]: 44.9 min | Total sleep time, Before [2, 7]: 380.1 min/night | WASO (wake after sleep onset), Before [2, 7]: 83.6 min | Wake in sleep interval, Before [2, 7]: 17.6% | Fragmentation index, Before ([2]; melatonin phase, before treatment, mean, greater scores indicate more fragmented sleep): 16.0 | effect on sleep efficiency, wake time during sleep, or sleep fragmentation ([2]; melatonin treatment compared to placebo, FIG. 3): no significant effect | Fragmentation index, Difference of Treatment Effect From the Linear Mixed-Effects Model, Mean [2, 5]: −3.2 | Mobility in sleep, Difference of Treatment Effect From the Linear Mixed-Effects Model, Mean [2, 5]: −2.9% | Sleep efficiency, Difference of Treatment Effect From the Linear Mixed-Effects Model, Mean [2, 5]: 2.2% | Sleep-onset latency, Difference of Treatment Effect From the Linear Mixed-Effects Model, Mean [2, 5]: -21.4 min | Total sleep time, Difference of Treatment Effect From the Linear Mixed-Effects Model, Mean [2, 5]: 24.8 min/night | WASO, Difference of Treatment Effect From the Linear Mixed-Effects Model, Mean [2, 5]: -8.2 min | Wake in sleep interval, Difference of Treatment Effect From the Linear Mixed-Effects Model, Mean [2, 5]: −2.3% | shortening of sleep-onset latency, mean ([2]; oral melatonin treatment): 23.4 min | shortening of sleep-onset latency, mean percent ([2]; oral melatonin treatment): 52.1% | gross findings of dermatitis ([3]; DNCB-stimulated mice treated with melatonin, FIG. 5, less skin erythema, less skin excoriation, improved hair growth): dermatitis was improved | Dermatitis clinical score ([3]; after topical melatonin treatment, decreased from 12, total score 0 to 12, Day 20, concentration not given): 3
